*1 amine or outer side, *2 acyl side, *3 side chain or, on linkers, in order; H or OH if unused. Where a SMILES comes first, the peptide text is derived from it. Side-chain parts run from the residue outwards. [ ]: non-standard residue; d: D form. The star is where a group is joined. C20 diacid = O=C(O)CCCCCCCCCCCCCCCCCCC(=O)*; γGlu = O=C(O)[C@H](CCC(=O)[*:2])N[*:1]; X2 = CC(C)(C(=O)*)c1cccc(F)c1; X1 = CC(C)(C(=O)*)c1cccnc1; AEEA = NCCOCCOCC(=O)O; Aib = CC(C)(N)C(=O)O; βAla = NCCC(=O)O A value given as a limit tells only on which side of the number the result lay.

Format in all cases: cell-based
Test [1] concerns the target T1, GLP-1 receptor (Homo sapiens, UniProt P43220). The test is described as follows: HitHunter cAMP assay, GLP-1 receptor. The conditions noted are these: for EC50: CHO cells stably expressing human GLP-1 receptor, cAMP accumulation, 30 min, read-out: EC50 GLP-1R; for Emax: CHO cells, cAMP, normalized to maximum signal from GLP-1 (high) and DMSO (low), read-out: Emax GLP-1R. In general terms: cAMP levels reflect the balance of adenylyl cyclase and phosphodiesterase activity.

The target in test [2] is T2, GIP receptor (Homo sapiens, UniProt P48546).
T2 sequence (P48546 22-466): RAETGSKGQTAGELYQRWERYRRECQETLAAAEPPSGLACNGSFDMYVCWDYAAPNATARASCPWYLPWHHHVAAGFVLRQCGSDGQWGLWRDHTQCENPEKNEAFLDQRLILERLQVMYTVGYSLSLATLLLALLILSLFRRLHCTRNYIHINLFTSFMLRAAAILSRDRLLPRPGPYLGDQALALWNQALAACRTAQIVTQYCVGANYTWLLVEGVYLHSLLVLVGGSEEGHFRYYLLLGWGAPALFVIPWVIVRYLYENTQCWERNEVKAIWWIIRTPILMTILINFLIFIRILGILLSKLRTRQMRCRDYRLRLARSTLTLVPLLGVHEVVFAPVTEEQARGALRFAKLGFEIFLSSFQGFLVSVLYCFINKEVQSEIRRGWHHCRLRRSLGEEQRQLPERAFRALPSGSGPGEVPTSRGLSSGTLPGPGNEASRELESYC
The test is described as follows: HitHunter cAMP assay, GIP receptor. As to conditions: for EC50: CHO cells stably expressing GIP receptor, cAMP accumulation, 30 min, read-out: EC50 GIP-1R; for Emax: CHO cells, cAMP, normalized to maximum signal from GIP (high) and DMSO (low), read-out: Emax GIP-1R.
Description: CAMP accumulation was measured in Chinese hamster ovary (CHO) cells stably expressing the human GLP-1 receptor or GIP receptor using the HitHunter CAMP Assay for Small Molecules Kit (Eurofins). Briefly, cells were grown in Ham's F12 Nutrient Mix with 10% FBS and lifted with Cell dissociation buffer, Enzyme free, PBS based (ThermoFisher). Cells were pelleted and resuspended in Hank's buffered saline solution with 10 mM Hepes and 625 μM 3-isobutyl-1-methylxanthine. The antibody reagent was then added to cells at a 1:2 ratio and 5 μL of mixture was seeded in 384-well small volume white assay plates, at 10,000 cells/well. Cells were then treated with 50 nl compound in DMSO using an ECHO 550 acoustic dispenser (Labcyte) in a 20-point dose response format in triplicate for 30 min. Cells were the lysed and detection reagents added according to the manufacturer's protocol. After overnight incubation, luminescence was measured using a Perkin Elmer Envision plate reader. Raw data was normalized to the maximum signal from GLP-1 or GIP (high) and DMSO (low). Dose response curves were analyzed using GraphPad Prism 9.0.

For test [3], the target named is T2, GIP receptor. Kind of test: PathHunter β-arrestin assay, GIP receptor. Details: host or cells: PathHunter CHO-K1 GIPR β-Arrestin Cell Line. The conditions noted are these: β-arrestin-2 recruitment, PathHunter CHO-K1 GIPR β-Arrestin Cell Line, 90 min at 37° C.; normalized to GIP; read-out: GIPR β Arrestin EC50. Background: Arrestin recruitment assays detect the binding of arrestin to an activated receptor.

Test [4] addresses T1, GLP-1 receptor. Kind of test: PathHunter β-arrestin assay, GLP-1 receptor. Details: host or cells: PathHunter CHO-K1 GLP1R β-Arrestin Cell Line. As to conditions: β-arrestin-2 recruitment, PathHunter CHO-K1 GLP1R β-Arrestin Cell Line, 90 min at 37° C.; normalized to GLP-1; read-out: GLP-1R β Arrestin EC50.

T1 sequence (P43220 24-463): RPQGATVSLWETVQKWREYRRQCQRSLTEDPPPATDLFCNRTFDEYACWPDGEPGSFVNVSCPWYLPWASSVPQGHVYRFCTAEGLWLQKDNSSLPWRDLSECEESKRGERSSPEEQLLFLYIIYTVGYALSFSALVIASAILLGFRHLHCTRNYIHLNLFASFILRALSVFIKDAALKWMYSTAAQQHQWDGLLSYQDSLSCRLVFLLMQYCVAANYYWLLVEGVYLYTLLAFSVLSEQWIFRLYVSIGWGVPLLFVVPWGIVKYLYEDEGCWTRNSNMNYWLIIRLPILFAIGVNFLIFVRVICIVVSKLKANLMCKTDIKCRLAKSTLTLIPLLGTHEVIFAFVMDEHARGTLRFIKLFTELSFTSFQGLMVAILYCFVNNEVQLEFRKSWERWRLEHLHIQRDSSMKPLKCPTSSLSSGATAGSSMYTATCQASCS

As for `CC[C@H](C)[C@H](NC(=O)[C@H](CC(C)C)NC(=O)[C@H](Cc1c[nH]c2ccccc12)NC(=O)[C@H](CCC(N)=O)NC(=O)[C@@H](NC(=O)[C@H](Cc1ccccc1)NC(=O)[C@H](C)NC(=O)[C@H](CCCCNC(=O)COCCOCCNC(=O)COCCOCCNC(=O)CC[C@H](NC(=O)CCCCCCCCCCCCCCCCCCC(=O)O)C(=O)O)NC(=O)[C@H](CCC(N)=O)NC(=O)[C@H](C)NC(=O)[C@@H](NC(=O)[C@H](CCCCN)NC(=O)[C@H](CC(=O)O)NC(=O)[C@H](CC(C)C)NC(=O)C(C)(C)NC(=O)[C@@H](NC(=O)[C@H](CO)NC(=O)[C@H](Cc1ccc(O)cc1)NC(=O)[C@H](CC(=O)O)NC(=O)[C@H](CO)NC(=O)[C@@H](NC(=O)[C@H](Cc1ccccc1)NC(=O)[C@@H](NC(=O)CNC(=O)[C@H](CCC(=O)O)NC(=O)CCNC(=O)C(C)(C)c1cccnc1)[C@@H](C)O)[C@@H](C)O)[C@@H](C)CC)[C@@H](C)CC)C(C)C)C(=O)N[C@@H](C)C(=O)NCC(=O)NCC(=O)N1CCC[C@H]1C(=O)N[C@@H](CO)C(=O)N[C@@H](CO)C(=O)NCC(=O)N[C@@H](C)C(=O)N1CCC[C@H]1C(=O)N1CCC[C@H]1C(=O)N1CCC[C@H]1C(=O)N[C@@H](CO)C(N)=O` [Compound 239] ({X1-βAla}-EGTFTSDYSI[Aib]LDKIAQK([AEEA-AEEA-γGlu-C20 diacid])AFVQWLIAGGPSSGAPPPS-NH2), the EC50 (as a rule, the concentration giving half of the maximal effect) on GLP-1 receptor [1] was under 0.1 nM; at GIP receptor [2], 1 to 10 nM; at GIP receptor [3], over 1000 nM; on GLP-1 receptor [4], under 1000 nM. Besides, the values for the maximum response (Emax) at GLP-1 receptor [1] and at GIP receptor [2] were 91% and 99%, respectively.
On to `CC[C@H](C)[C@H](NC(=O)[C@H](CC(C)C)NC(=O)[C@H](Cc1c[nH]c2ccccc12)NC(=O)[C@H](CCC(N)=O)NC(=O)[C@@H](NC(=O)[C@H](Cc1ccccc1)NC(=O)[C@H](C)NC(=O)[C@H](CCCCNC(=O)COCCOCCNC(=O)COCCOCCNC(=O)CC[C@H](NC(=O)CCCCCCCCCCCCCCCCCCC(=O)O)C(=O)O)NC(=O)[C@H](CCC(N)=O)NC(=O)[C@H](C)NC(=O)[C@@H](NC(=O)[C@H](CCCCN)NC(=O)[C@H](CC(=O)O)NC(=O)[C@H](CC(C)C)NC(=O)C(C)(C)NC(=O)[C@@H](NC(=O)[C@H](CO)NC(=O)[C@H](Cc1ccc(O)cc1)NC(=O)[C@H](CC(=O)O)NC(=O)[C@H](CO)NC(=O)[C@@H](NC(=O)[C@H](Cc1ccccc1)NC(=O)[C@@H](NC(=O)CNC(=O)[C@H](CCC(=O)O)NC(=O)CCNC(=O)C(C)(C)c1cccc(F)c1)[C@@H](C)O)[C@@H](C)O)[C@@H](C)CC)[C@@H](C)CC)C(C)C)C(=O)N[C@@H](C)C(=O)NCC(=O)NCC(=O)N1CCC[C@H]1C(=O)N[C@@H](CO)C(=O)N[C@@H](CO)C(=O)NCC(=O)N[C@@H](C)C(=O)N1CCC[C@H]1C(=O)N1CCC[C@H]1C(=O)N1CCC[C@H]1C(=O)N[C@@H](CO)C(N)=O` [Compound 240] ({X2-βAla}-EGTFTSDYSI[Aib]LDKIAQK([AEEA-AEEA-γGlu-C20 diacid])AFVQWLIAGGPSSGAPPPS-NH2), for which the EC50 was under 0.1 nM at GLP-1 receptor [1], 1 to 10 nM on GIP receptor [2], under 1000 nM on GIP receptor [3] and under 1000 nM on GLP-1 receptor [4]. The maximal effect (Emax) (as a rule, the size of the effect at its maximum, as opposed to the concentration needed) on GLP-1 receptor [1] is 93%; on GIP receptor [2], 95%.

(Values after patent publication US12281149B2, “Modulators of G-protein coupled receptors” (priority 2021, dated 2025).)
